Results on 15 compounds are retold here after patent US20140314780A1, “Compositions Using Antibodies Directed to GPNMB and Uses Thereof” (Celldex Therapeutics, Inc., priority 2008, published 2014).

In assay [1] the test system is GPNMB. Briefly: Immunoblotting for GPNMB on whole-cell lysates of cancer cell lines after drug exposure. It counts as cell-based, human. The note with it: for increase of GPNMB expression in the screen: determined by immunoblotting and/or flow cytometry analysis; for GPNMB expression (immunoblotting): melanoma lines SKMEL2, A375, WM2664, MEWO, 48 hours (FIG. 6A); for GPNMB expressed after protein synthesis inhibition: 1 hour, absence of ammonium chloride (FIG. 6D). From the text:
Cancer cell lines were of human origin and were obtained from the American Type Culture Collection (Manassas, Va.) and from the National Cancer Institute (Bethesda, Md.) and cultured in RPMI-1640 supplemented with 10% FBS (growth media). Sources of reagents were as follows: RAFKi (553013), MEKi (U0126), MEKi (PD98059), MEKi (444939), ERKi (FR180204), p38 MAPKi (SB202190), p38 MAPKi (SB203580), aurora kinase inhibitor (189404), JNK inhibitor (420119), MMPi (GM6001) were from EMD Chemicals (San Diego, Calif.). ERKi (A6355), RAFKi: (GW5074), ammonium chloride (NH4Cl), chloroquine, monensin, cyclohexamide and emetine were from Sigma (Saint Louis, Mo.). HSP90i (geldanamycin) was from AG Scientific (San Diego, Calif.) and imatinib (Gleevec) was purchased from a pharmacy.
Cells were seeded in 6-well tissue culture dishes at a subconfluent density and allowed to attach overnight. For harvesting cell lysates, media was removed, cells were briefly washed with serum-free media and then 1× Tris-glycine SDS sample buffer (Invitrogen, Carlsbad, Calif.) supplemented with 10 mM dithiothreitol (Sigma) was added directly to the wells. Cell lysates were then collected and boiled for 10 minutes. For preparing conditioned media, drug treatments were performed in a minimum volume of growth media (1.5 mL/well). Following 48 hours of incubation, conditioned media was collected, briefly microfuged, mixed with an equal volume of 2× Tris-glycine SDS sample buffer (Invitrogen, Carlsbad, Calif.) supplemented with 20 mM dithiothreitol (Sigma) and boiled for 10 minutes. For cell lysates, samples were quantified and an equal quantity of protein/lane was resolved on 4-20% gradient polyacrylamide gels (Invitrogen) and then transferred to nitrocellulose filters (Invitrogen). The volume of conditioned media loaded/lane was adjusted based on the protein concentration determined in the respective cell lysates. Immunoblotting was performed using standard procedures and the following primary antibodies: MARTI (sc-20032), TYRP2 (sc-25544), TYRP1 (sc-25543), PMEL17 (sc-15010), MAGEA1 (sc-20033), MCSP (sc-20162), MTf (sc-26651), MCAM (sc-18942), pp-ERK (sc-7976) and ERK (sc-94) (preceding antibodies were purchased from Santa Cruz Biotechnologies, Santa Cruz, Calif.), GPNMB (AF2550; R & D Systems, Minneapolis Minn.), actin (A5060; Sigma). Following incubation with the appropriate horseradish peroxidase-conjugated secondary antibodies, enhanced chemiluminescence (GE Healthcare, Chalfont St. Giles, United Kingdom) was used for detection.

In assay [2] the test system is GPNMB surface expression on SKMEL2 melanoma cells. Kind of assay: Flow cytometry of GPNMB surface expression, SKMEL2 cells. Type of assay: cell-based, human. The note with it: for GPNMB surface expression, flow cytometry GeoMean: SKMEL2, CR011 (anti-GPNMB) primary antibody, MEKi (U0126) 10 uM, imatinib 20 uM, p38i (SB202190) 50 uM; for GPNMB surface-expression: SKMEL2 cells, 48 hours (Table 37, bottom left). The protocol: Cells were seeded in 6-well tissue culture dishes at a subconfluent density and allowed to attach overnight. The following day, cells were treated as indicated in the figures/legends, harvested with versene (Invitrogen), washed with PBS and incubated with primary antibody (10 μg/mL) diluted in staining buffer (PBS pH 7.4, 4% FBS, 0.1% sodium azide) for 30 minutes on ice. […] After incubation with primary antibody, samples were washed with staining buffer and then incubated with secondary antibody (PE-conjugated anti-human antibody; 1:100) for 30 minutes on ice. After incubation, samples were washed with staining buffer and examined on a Becton Dickinson FACSCalibur flow cytometer (BD Immunocytometry Systems, San Jose, Calif.). Data analysis was performed with Becton Dickinson Cell Quest software and the geometric mean fluorescence intensity (GeoMean) was determined for each sample.
For the data shown in Table 37, flow cytometry was performed on intact, non-permeabilized cells using the indicated primary monoclonal antibodies. […] The results are reported as GeoMeans. For the data shown in the top panel of Table 37, A375 (melanoma) or SF539 (glioblastoma) cells were treated with the indicated concentrations of MEKi (U0126), RAFKi (553013) or ERKi (FR180204) for 12, 24 or 48 hours prior to analysis. For the data shown in the bottom left panel of Table 37, SKMEL2 (melanoma) cells were treated with MEKi (U0126; 10 uM), imatinib (20 uM), p38i (p38 MAPKi SB202190; 50 uM), NH4Cl (ammonium chloride; 20 mM) or CLQ (chloroquine; 20 uM) for 48 hours prior to analysis. For the data shown in the bottom right panel of Table 37, WM2664 (melanoma) cells were treated with MON (monensin) or MMPi (GM6001) for 48 hours prior to analysis.
For orientation: Flow cytometry measures light scatter and fluorescence of single cells or particles in a stream.

Regarding `CC(=O)O[C@H]1C(=O)[C@@]2(C)[C@H]([C@H](OC(=O)c3ccccc3)[C@]3(O)C[C@H](OC(=O)[C@H](O)[C@@H](NC(=O)c4ccccc4)c4ccccc4)C(C)=C1C3(C)C)[C@]1(OC(C)=O)CO[C@@H]1C[C@@H]2O` [paclitaxel], the “increase of GPNMB expression in the screen” value (shortened to “increase of GPNMB expression”) in assay [1] was “ineffective”.

Consider `O=NN(CCCl)C(=O)NCCCl` [carmustine], for which, in assay [1], the “increase of GPNMB expression” value is “ineffective”.

For the compound `O=C(/C=C/c1cccc(S(=O)(=O)Nc2ccccc2)c1)NO` [belinostat], the “increase of GPNMB expression” value in assay [1] is reported as “ineffective”.

As to `Oc1ccc(-c2nc(-c3ccc(F)cc3)c(-c3ccncc3)[nH]2)cc1` [SB202190, 4-[4-(4-Fluorophenyl)-5-(4-pyridinyl)-1H-imidazol-2-yl]phenol], the “GPNMB surface expression, flow cytometry GeoMean” value (“GPNMB surface expression” for short) in assay [2] came to 85.1.

With `Cl.N` [ammonium chloride], the “GPNMB induction compared with MTf and MCAM” value in assay [1] (NH4Cl 20 mM, 48 hours (FIG. 6E)) is listed as “more highly induced”. Further, the “GPNMB detection with protein synthesis inhibitor” value in assay [1] (ammonium chloride (50 mM) along with protein synthesis inhibitor, 1 hour (FIG. 6D)) was “readily detectable”. Besides, the “GPNMB expression (immunoblotting)” value in assay [1] was “induced”. In assay [2], the “GPNMB surface expression” value is 93.8 and the GPNMB surface-expression entry is “increase GPNMB surface-expression”.

`CC(C)C[C@H](NC(=O)[C@H](Cc1ccccc1)NC(=O)c1cnccn1)B(O)O` [bortezomib]: the “increase of GPNMB expression” value in assay [1] is given as “ineffective”.

Take IFNα: the “increase of GPNMB expression” value in assay [1] is listed as “ineffective”.

For “IFNγ: IFNγ, compound examined in the screen”, the “increase of GPNMB expression” value in assay [1] was “ineffective”.

With `CCN(CC)CCCC(C)Nc1ccnc2cc(Cl)ccc12` (stereo not drawn) [chloroquine], the “GPNMB expression (immunoblotting)” value in assay [1] is on record as “induced”. Further, in assay [2], the “GPNMB surface expression” value came out at 91.2 and the GPNMB surface-expression result was “increase GPNMB surface-expression”.

Regarding `C[C@@H]1C[C@@H]([C@H](O)CC2CC(=O)NC(=O)C2)C(=O)[C@@H](C)C1` [cyclohexamide], the “GPNMB expressed after protein synthesis inhibition” value in assay [1] is “little or no GPNMB”.

For `Nc1ncn([C@@H]2O[C@H](CO)[C@@H](O)[C@H]2O)c(=O)n1` [Mab 5-AZA], the “increase of GPNMB expression” value in assay [1] is “ineffective”.

`O=c1cc(N2CCOCC2)oc2c(-c3ccccc3)cccc12` [LY94002]: the “increase of GPNMB expression” value in assay [1] is “ineffective”.

`Cc1ccc2nc(NCCN)c3ncc(C)n3c2c1` [BMS345541]: in assay [1], the “increase of GPNMB expression” value is “ineffective”.

With `N.N.[Cl][Pt][Cl]` [cisplatin], the “increase of GPNMB expression” value in assay [1] is given as “ineffective”.

Regarding `CC[C@H]1CN2CCc3cc(OC)c(OC)cc3[C@@H]2C[C@@H]1C[C@H]1NCCc2cc(OC)c(OC)cc21` [emetine], the “GPNMB expressed after protein synthesis inhibition” value in assay [1] was “little or no GPNMB”.
